Data as given in PMC8838982 (Bioorganic chemistry, 2021).
Where “and” joins values, the source holds several entries; their conditions need not be identical. Equal values may be shown once.

Legend:
Type in all cases: cell-based, influenza virus A/PR/8/34
[1] = system: PA-mutant H41A influenza virus polymerase
[2] = system: PA-mutant L42T influenza virus polymerase
[3] = system: PA-mutant G81T influenza virus polymerase
[4] = system: PA-mutant R84L influenza virus polymerase
[5] = system: PA-mutant I120T influenza virus polymerase
[6] = system: PA-mutant V122T influenza virus polymerase
[7] = system: PA-mutant R124Q influenza virus polymerase
[8] = system: PA-mutant K137L influenza virus polymerase
[9] = system: PA-mutant T20A influenza virus polymerase
[10] = system: PA-I38T mutant influenza virus polymerase

Row | Compound | Fold increase in EC50 compared to wild-type [1] [fold] | Fold increase in EC50 compared to wild-type [2] [fold] | Fold increase in EC50 compared to wild-type [3] [fold] | Fold increase in EC50 compared to wild-type [4] | Fold increase in EC50 compared to wild-type [5] [fold] | Fold increase in EC50 compared to wild-type [6] [fold] | Fold increase in EC50 compared to wild-type [7] [fold] | Fold increase in EC50 compared to wild-type [8] [fold] | Fold increase in EC50 compared to wild-type [9] [fold] | Fold increase in EC50 compared to wild-type [10] [fold]
1 | O=C1c2c(ccc(O)c2O)CN1Cc1ccc(O)cc1 [Compound 17, 2-(4-hydroxybenzyl)-6,7-dihydroxy-isoindolin-1-one] | 4.9 | 2.5 | 6.1 | 4 fold and 3.8 fold | 6.1 | 4.2 | 5.0 | 4.5 | – | –
2 | NC(=O)c1ncn([C@@H]2O[C@H](CO)[C@@H](O)[C@H]2O)n1 [Ribavirin, ribavirin] | 0.8 | 0.9 | 0.9 | 1.1 fold | 1.0 | 1.2 | 1.1 | 1.3 | 1.0 | –
3 | baloxavir acid [BXA] | 0.2 | 1.1 | 0.2 | 0.2 fold | 0.7 | 0.7 | 0.5 | – | 0.3 | 65
